Marks after values point to notes of the source that are not given here.
What was measured:
Type in all cases: physicochemical
[1] = Micronisation: particle size distribution and polymorphic integrity; conditions: for polymorphic integrity during micronisation (XRPD): XRPD trace after milling compared with before; for particle size distribution D10 / particle size distribution D50 / particle size distribution D90: after micronisation
Description: Liquid suspension and aerosol formulations (whether pressurised or unpressurised) will typically contain the compound of the invention in particulate form, for example with a D50 of 0.5-10 μm, suitably around 1-5 μm, such as 1-2 μm. Suitably, the compound of the invention in particulate form has a D10 of 0.2 to 1 μm, such as 0.2 to 0.5 μm. Suitably, the compound of the invention in particulate form has a D90 of 2 to 6 μm such as 3 to 4 μm. The particulate form of the compound may, for example, be a micronised form. Micronisation may be performed using a jet mill such as those manufactured by Hosokawa Alpine. The resultant particle size distribution may be measured using laser diffraction (e.g. with a Malvern Mastersizer 2000S instrument). Particle size distributions may be represented using D10, D50 and D90 values. The Dso median value of particle size distributions is defined as the particle size in microns that divides the distribution in half. The measurement derived from laser diffraction is more accurately described as a volume distribution and consequently the D50 value obtained using this procedure is more meaningfully referred to as a Dv50 value (median for a volume distribution). As used herein Dv values refer to particle size distributions measured using laser diffraction. Similarly, D10 and D90 values, used in the context of laser diffraction, are taken to mean Dv10 and Dv90 values and refer to the particle size whereby 10% of the distribution lies below the D10 value, and 90% of the distribution lies below the D90 value, respectively.
A sample of crude input material (100 g, Form 3) was suspended in a mixture of 5% water in acetone (1.00 L), a seed of Form 1 (100 mg) was added and the mixture was stirred at RT overnight. The suspension was filtered and the filter cake was washed with a mixture of 5% water in acetone (20 mL) and the solids dried at 40° C. to provide polymorphic Form 1 as a white powder (85.5 g, 85.5% recovery, 98.7% purity by HPLC) as determined from its DSC trace (FIG. 9). Micronisation of the product so obtained provided a powder for which the particle size distribution, expressed in D values, was as follows: […].
Micronisation of the product so obtained provided a powder for which the particle size distribution, expressed in D values, was as follows: […]. It will be appreciated by those skilled in the art that these characteristics are suitable for a product intended for administration by inhalation. […] The Form 2 polymorph is therefore susceptible to and stable towards the micronisation process required to derive a material with the properties necessary for its intended purpose.

[2] = Equilibration of Forms 1 and 2, singularly and as mixtures, in MEK and THF alone and with 5% water; conditions: 5-10 °C, both equilibration temperatures
Description: The influence of the initial polymorphic composition on the fate of samples was investigated by equilibration of the either the single polymorphs or an equal mixture of both in anhydrous MEK and THF as well as in the same solvents doped with 5% water.
The results obtained (Table 13) reveal that in anhydrous media the two polymorphs retain their structural integrity, if present singularly (Table 13, Entries 1, 2, 4 and 5). […] (Table 13, Entry 4) which may be attributable to the presence of traces of moisture in a highly hygroscopic solvent.
The results observed when 5% water was admixed to the two solvents indicate that the predominance of the two forms reversed under these conditions, taking kinetic factors into account. In aqueous MEK (5% water) the single polymorphs were again unchanged for the duration of the experiment (Table 13, Entries 7 and 8). In contrast, the binary polymorphic mixture converted into Form 1 in this medium (Table 13, Entry 9). In aqueous THF (5% water) the dominance of Form 1 as the most preferred polymorph was especially evident. In this environment the suspension of Form 1 remained unchanged (Table 13, Entry 10), consistent with the outcome observed for aq MEK under the same conditions.
However, in THF doped with 5% water, both the suspension comprising the binary mixture, as well as that composed of the Form 2 polymorph alone, were transformed into suspensions containing only Form 1 (Table 13, Entries 11 and 12).

[3] = Fate of Form 2 slurried in 1,4-dioxane/water mixtures, XRPD; conditions: 1,4-dioxane
Description: In the presence of 10% water the Form 1 polymorph is evident in the slurry mixture within an hour at 25° C. […] This ternary system behaved similarly at 50° C. However, at the higher temperature of 65° C. the rate of turnover is increased such that Form 1 was generated after 3 hr. Consistent with the data obtained from the experiments described above, increasing the proportion of water to 80% in this system was sufficient to halt the polymorphic interconversion at 25° C., 50° C. and even at 65° C.

[4] = Fate of Form 2 slurried in THF and THF/water mixtures, XRPD
Description: To investigate the generality of this unforeseen transformation a similar experiment was carried out in THF and in THF/water mixtures. […] At 25° C. those mixtures comprising 10% and 20% water returned Form 1 after 4 and 24 hours respectively (Table 10, Entries 2 and 3).

## Cc1cc(N2CCN(c3ccc(C(=O)Nc4ccc(F)cc4)cc3)CC2)ccc1OC[C@@H]1CO[C@@](Cn2cncn2)(c2ccc(F)cc2F)C1 [Form 1, 4-(4-(4-(((3R,5R)-5-((1H-1,2,4-triazol-1-yl)methyl)-5-(2,4-difluorophenyl)tetrahydrofuran-3-yl)methoxy)-3-methylphenyl)piperazin-1-yl)-N-(4-fluorophenyl)benzamide]
[1]
  polymorphic integrity during micronisation (XRPD): polymorphic integrity was retained
  particle size distribution D10: 0.75 µm
  particle size distribution D50: 1.59 µm
  particle size distribution D90: 3.23 µm
[2]; MEK (anhydrous)
  Form by XRPD Post Equilibration: 1
[2]; MEK/5% Water
  Form by XRPD Post Equilibration: 1
[2]; THF (anhydrous), Form 1 input: some evidence of Form 2 at 10 °C
  Form by XRPD Post Equilibration: 1^b
[2]; THF/5% Water
  Form by XRPD Post Equilibration: 1

## Cc1cc(N2CCN(c3ccc(C(=O)Nc4ccc(F)cc4)cc3)CC2)ccc1OC[C@@H]1CO[C@@](Cn2cncn2)(c2ccc(F)cc2F)C1 [Form 2, 4-(4-(4-(((3R,5R)-5-((1H-1,2,4-triazol-1-yl)methyl)-5-(2,4-difluorophenyl)tetrahydrofuran-3-yl)methoxy)-3-methylphenyl)piperazin-1-yl)-N-(4-fluorophenyl)benzamide]
[1]
  polymorphic integrity during micronisation (XRPD): no significant change
  particle size distribution D10: 0.42 µm
  particle size distribution D50: 1.24 µm
  particle size distribution D90: 3.57 µm
[3]; 10% water, 25 °C, 1 hr, trace of Form 2 remaining
  Polymorphic Form by XRPD: 1^†
[3]; 10% water, 25 °C, 3 hr, trace of Form 2 remaining
  Polymorphic Form by XRPD: 1^†
[3]; 10% water, 25 °C, 6 hr, trace of Form 2 remaining
  Polymorphic Form by XRPD: 1^†
[3]; 10% water, 25 °C, 24 hr, trace of Form 2 remaining
  Polymorphic Form by XRPD: 1^†
[3]; 10% water, 50 °C, 24 hr
  Polymorphic Form by XRPD: 1
[3]; 40% water, 25 °C, 1 hr
  Polymorphic Form by XRPD: 2
[3]; 40% water, 25 °C, 3 hr
  Polymorphic Form by XRPD: 2
[3]; 40% water, 25 °C, 6 hr
  Polymorphic Form by XRPD: 2
[3]; 40% water, 25 °C, 24 hr
  Polymorphic Form by XRPD: 1
[3]; 40% water, 50 °C, 1 hr
  Polymorphic Form by XRPD: 2
[3]; 40% water, 50 °C, 3 hr
  Polymorphic Form by XRPD: 2
[3]; 40% water, 50 °C, 6 hr
  Polymorphic Form by XRPD: 2
[3]; 40% water, 50 °C, 24 hr
  Polymorphic Form by XRPD: 1
[3]; 40% water, 65 °C, 1 hr
  Polymorphic Form by XRPD: 2
[3]; 40% water, 65 °C, 3 hr
  Polymorphic Form by XRPD: 1
[3]; 40% water, 65 °C, 6 hr
  Polymorphic Form by XRPD: 1
[3]; 40% water, 65 °C, 24 hr
  Polymorphic Form by XRPD: 1
[3]; 80% water, 25 °C, 1 hr
  Polymorphic Form by XRPD: 2
[3]; 80% water, 25 °C, 3 hr
  Polymorphic Form by XRPD: 2
[3]; 80% water, 25 °C, 6 hr
  Polymorphic Form by XRPD: 2
[3]; 80% water, 25 °C, 24 hr
  Polymorphic Form by XRPD: 2
[3]; 80% water, 50 °C, 1 hr
  Polymorphic Form by XRPD: 2
[3]; 80% water, 50 °C, 3 hr
  Polymorphic Form by XRPD: 2
[3]; 80% water, 50 °C, 6 hr
  Polymorphic Form by XRPD: 2
[3]; 80% water, 50 °C, 24 hr
  Polymorphic Form by XRPD: 2
[3]; 80% water, 65 °C, 1 hr
  Polymorphic Form by XRPD: 2
[3]; 80% water, 65 °C, 3 hr
  Polymorphic Form by XRPD: 2
[3]; 80% water, 65 °C, 6 hr
  Polymorphic Form by XRPD: 2
[3]; 80% water, 65 °C, 24 hr
  Polymorphic Form by XRPD: 2
[4]; THF, water 0 vol %, 25 °C, 1 hr
  Polymorphic Form by XRPD: 2
[4]; THF, water 0 vol %, 25 °C, 4 hr
  Polymorphic Form by XRPD: 2
[4]; THF, water 0 vol %, 50 °C, 1 hr
  Polymorphic Form by XRPD: 2
[4]; THF, water 0 vol %, 50 °C, 4 hr
  Polymorphic Form by XRPD: 2
[4]; THF/water, water 10 vol %, 25 °C, 1 hr
  Polymorphic Form by XRPD: 2
[4]; THF/water, water 10 vol %, 25 °C, 4 hr
  Polymorphic Form by XRPD: 1
[4]; THF/water, water 10 vol %, 25 °C, 24 hr
  Polymorphic Form by XRPD: 1
[4]; THF/water, water 10 vol %, 50 °C, 1 hr
  Polymorphic Form by XRPD: 1
[4]; THF/water, water 10 vol %, 50 °C, 4 hr
  Polymorphic Form by XRPD: 1
[4]; THF/water, water 10 vol %, 50 °C, 24 hr
  Polymorphic Form by XRPD: 1
[4]; THF/water, water 20 vol %, 25 °C, 1 hr
  Polymorphic Form by XRPD: 2
[4]; THF/water, water 20 vol %, 25 °C, 4 hr
  Polymorphic Form by XRPD: 2
[4]; THF/water, water 20 vol %, 25 °C, 24 hr
  Polymorphic Form by XRPD: 1
[4]; THF/water, water 20 vol %, 50 °C, 1 hr
  Polymorphic Form by XRPD: 1
[4]; THF/water, water 20 vol %, 50 °C, 4 hr
  Polymorphic Form by XRPD: 1
[4]; THF/water, water 20 vol %, 50 °C, 24 hr
  Polymorphic Form by XRPD: 1
[4]; THF/water, water 40 vol %, 25 °C, 1 hr
  Polymorphic Form by XRPD: 2
[4]; THF/water, water 40 vol %, 25 °C, 4 hr
  Polymorphic Form by XRPD: 2
[4]; THF/water, water 40 vol %, 25 °C, 24 hr
  Polymorphic Form by XRPD: 2
[4]; THF/water, water 40 vol %, 50 °C, 1 hr
  Polymorphic Form by XRPD: 1
[4]; THF/water, water 40 vol %, 50 °C, 4 hr
  Polymorphic Form by XRPD: 1
[4]; THF/water, water 40 vol %, 50 °C, 24 hr
  Polymorphic Form by XRPD: 1

From patent publication US12491182B2, “Polymorphs of triazole antifungal compound PC945” (Pulmocide Limited, priority 2019, dated 2025)
